# Source: ChEMBL document CHEMBL1153194, “Discovery of halo-nitrobenzamides with potential application against human African trypanosomiasis” (Bioorg Med Chem Lett, 2010)
# Experiments:
# HepG2 = test: Cytotoxicity against human HepG2 cells after 72 hrs; format: cell-based; details: HepG2, 72 h
# [1] = Solubility of the compound; format: physicochemical
# [2] = system: Trypanosoma brucei brucei; test: Antitrypanosomal activity against Trypanosoma brucei brucei after 48 hrs by luminescence assay; format: functional, organism-based
# Plasmodium falciparum = test: Antiplasmodial activity against Plasmodium falciparum 3D7 infected in human O+ erythrocytes after 72 hrs by GNA satin based assay; format: functional, organism-based; details: 3D7, 72 h
SMILES,IC50 (HepG2),solubility [1],IC50 [2],IC50 (Plasmodium falciparum)
CCCCCCc1ccc(NC(=O)c2c(Cl)cccc2[N+](=O)[O-])cc1,> 50 µM,< 0.1 µM,29.8 µM,> 15 µM
O=C(Nc1ccc(Cl)cc1)c1cc([N+](=O)[O-])ccc1Cl,> 50 µM,–,1.5 µM,> 15 µM
CCCCCCc1ccc(NC(=O)c2cc([N+](=O)[O-])ccc2F)cc1,2.5 µM,< 0.1 µM,1.5 µM,7.3 µM
CCCCCCc1ccc(C(=O)Nc2cc([N+](=O)[O-])ccc2Cl)cc1,> 50 µM,< 0.1 µM,> 50 µM,> 15 µM
CCCCCCc1ccc(NC(=O)c2ccc(F)c([N+](=O)[O-])c2)cc1,10.3 µM,< 0.1 µM,24 µM,> 15 µM
O=C(NCC1CCCCC1)c1cc([N+](=O)[O-])ccc1Cl,> 50 µM,–,27 µM,> 15 µM
COc1ccc(N2CCN(C(=O)c3cc([N+](=O)[O-])ccc3Cl)CC2)cc1,> 50 µM,–,24.5 µM,> 15 µM
COc1ccc(NC(=O)c2cc([N+](=O)[O-])ccc2Cl)cc1,> 50 µM,–,19.2 µM,> 15 µM
CCCCCCc1ccc(NC(=O)c2ccc(Cl)c([N+](=O)[O-])c2)cc1,> 50 µM,< 0.1 µM,11.9 µM,> 15 µM
CCCCCCc1ccc(NC(=O)c2cccc([N+](=O)[O-])c2Cl)cc1,> 50 µM,< 0.1 µM,> 50 µM,> 15 µM
CCCCCCc1ccc(NC(=O)c2cc([N+](=O)[O-])ccc2Cl)cc1,> 50 µM,< 0.1 µM,1 µM,> 15 µM
O=C(NCc1ccccc1)c1cc([N+](=O)[O-])ccc1Cl,> 50 µM,–,> 50 µM,> 15 µM
CCCCCCc1ccc(C(=O)Oc2ccc(Cl)c([N+](=O)[O-])c2)cc1,> 50 µM,< 0.1 µM,24 µM,> 15 µM
Cc1ccc(NC(=O)c2cc([N+](=O)[O-])ccc2Cl)cc1,> 50 µM,–,7.7 µM,> 15 µM
CCCCCCc1ccc(NC(=O)c2ccc(Cl)cc2[N+](=O)[O-])cc1,> 50 µM,< 0.1 µM,20.8 µM,> 15 µM
CCCCCCc1ccc(C(=O)Nc2ccc(Cl)c([N+](=O)[O-])c2)cc1,> 50 µM,< 0.1 µM,6 µM,> 15 µM
CCCCCCc1ccc(NC(=O)c2ccc([N+](=O)[O-])cc2Cl)cc1,> 50 µM,< 0.1 µM,19 µM,> 15 µM
